Results published in patent US20130005810A1, “ORGANIC UNCOUPLING AGENTS” (RHODIA OPERATIONS, priority 2009, published 2013).

Test system: bacterial strain Shinella granuli
Assay: Oxitop respirometric screening test (oxygen overconsumption as signature of uncoupling, 7 days)
Type: cell-based
Details: for uncoupling percentage relative to the control: Shinella granuli, 7 days
From the text: In order to evaluate the reduction in sludge production by a chemical uncoupling agent in screening, the respirometric technique of Oxitop® cylinders is used. Bacterial strains known and representative of activated sludge (since they are isolated in aeration tanks) are inoculated into a culture medium in the presence of a certain concentration of the uncoupling agent over a period of 7 days. By comparing the respiration of treated inocula comparatively with controls (untreated inocula), it is possible to measure oxygen overconsumption, a physiological signature of the uncoupling effect on bacteria.
The method and the apparatus used are those described in Example 3 of WO 2004/113236 cited as a reference.
The results obtained in a screening test on the bacterial strain Shinella granuli, are gathered in Table 1 below. They are expressed as an uncoupling percentage relative to the control (not comprising any uncoupling agent). THPS (tetrakis(hydromethyl)phosphonium sulfate) produces uncoupling effects in oxitop® respirometry tests of 16±8% for a rated concentration of 3 ppm, the 95% confidence interval of THPS in terms of uncoupling factor being, […] from results obtained in 26 Oxitop® tests.

Structure (SMILES) | uncoupling percentage relative to the control (0.1 ppm uncoupling agent) [%] | uncoupling percentage relative to the control (0.5 ppm uncoupling agent) [%] | uncoupling percentage relative to the control (1 ppm uncoupling agent) [%] | uncoupling percentage relative to the control (2 ppm uncoupling agent) | uncoupling percentage relative to the control (3 ppm uncoupling agent) | uncoupling percentage relative to the control (8 ppm uncoupling agent) | uncoupling percentage relative to the control (10 ppm uncoupling agent) | uncoupling percentage relative to the control (20 ppm uncoupling agent) [%] | uncoupling factor (concentration range between 2 and 20 ppm, summary drawn from Table 1) [%]
C[N+](C)(C)CC(=O)[O-] [Glycine betaine, glycine betaine] | 5 | 18 | 0 | 20%-26% | 24%-25% | 20%-26% | 12-20% | – | –
OCC(CO)(CO)CO [Pentaerythritol, pentaerythritol] | – | 2 | 8 | – | 19% | – | – | 22 | ~20
COc1cc(C=O)ccc1O [Vanillin, vanillin] | 5 | 18 | 14 | 18%-25% | 15%-22% | 21%-21% | 18%-23% | 18 | –
